Measured values: ChEMBL document CHEMBL1201862, “PubChem BioAssay data set” (2004)
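In this assay, cells in 96-well plates receive the compound at five concentrations for 48 hours. Endpoints are linearly interpolated between the surrounding concentrations. GI50: concentration for 50% inhibition of growth.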 Active and inactive are the calls of the source. No stated cut-off is given here; in the data, active = GI50 up to about 1.1 µM and inactive = higher.

Columns and labels:
Assay in all cases: NCI-60 cell line screen, 48 h
HOP-62 = tested on: HOP-62
OVCAR-3 = tested on: OVCAR-3
UACC-257 = tested on: UACC-257
LOX IMVI = tested on: LOX IMVI
MCF7 = tested on: MCF7
NCI-H226 = tested on: NCI-H226
NCI-H23 = tested on: NCI-H23
K562 = tested on: K562
SW-620 = tested on: SW-620
SF-539 = tested on: SF-539
SK-MEL-5 = tested on: SK-MEL-5
A498 = tested on: A498
RPMI-8226 = tested on: RPMI-8226
RXF 393 = tested on: RXF 393
NCI/ADR-RES = tested on: NCI/ADR-RES
MDA-MB-435 = tested on: MDA-MB-435
HCC 2998 = tested on: HCC 2998
CAKI-1 = tested on: CAKI-1
T47D = tested on: T47D
DU-145 = tested on: DU-145

SMILES	GI50 (HOP-62)	GI50 (OVCAR-3)	GI50 (UACC-257)	GI50 (LOX IMVI)	GI50 (MCF7)	GI50 (NCI-H226)	GI50 (NCI-H23)	GI50 (K562)	GI50 (SW-620)	GI50 (SF-539)	GI50 (SK-MEL-5)	GI50 (A498)	GI50 (RPMI-8226)	GI50 (RXF 393)	GI50 (NCI/ADR-RES)	GI50 (MDA-MB-435)	GI50 (HCC 2998)	GI50 (CAKI-1)	GI50 (T47D)	GI50 (DU-145)
COc1cc(/C=C/C(=O)O)ccc1C(=O)O/C=C/c1ccccc1	> 100 µM (inactive)	> 100 µM (inactive)	> 100 µM (inactive)	73.1 µM (inactive)	73.5 µM (inactive)	> 100 µM (inactive)	> 100 µM (inactive)	> 100 µM (inactive)	> 100 µM (inactive)	> 100 µM (inactive)	> 100 µM (inactive)	> 85.3 µM (inactive)	> 100 µM (inactive)	> 100 µM (inactive)	> 100 µM (inactive)					
CCOC(=O)N1CCN(C(=O)Nc2cccc3ccccc23)CC1	> 10 µM (inactive)	> 10 µM (inactive)		> 10 µM (inactive)	> 10 µM (inactive)	> 10 µM (inactive)	> 10 µM (inactive)	> 10 µM (inactive)	> 10 µM (inactive)	> 10 µM (inactive)	> 10 µM (inactive)	> 10 µM (inactive)	> 10 µM (inactive)	> 10 µM (inactive)	> 10 µM (inactive)	> 10 µM (inactive)	> 10 µM (inactive)	> 10 µM (inactive)	> 10 µM (inactive)	> 10 µM (inactive)
CC(C)C(=O)CC(c1ccc(Br)cc1)N1N=C(C(C)C)CC1c1ccc(Br)cc1 (stereo unspecified)	> 100 µM (inactive)	70.8 µM (inactive)		55.8 µM (inactive)		> 100 µM (inactive)	> 100 µM (inactive)	64.4 µM (inactive)	93.3 µM (inactive)	> 100 µM (inactive)				16.9 µM (inactive)			34.2 µM (inactive)	> 100 µM (inactive)		
C=CCN1C(=O)/C(=C/c2cccs2)N=C1SC1OC(COC(=O)c2ccccc2)C(OC(=O)c2ccccc2)C1OC(=O)c1ccccc1 (stereo unspecified)	> 100 µM (inactive)	> 100 µM (inactive)	> 100 µM (inactive)	> 100 µM (inactive)	36.6 µM (inactive)	> 100 µM (inactive)	> 100 µM (inactive)	> 100 µM (inactive)	> 100 µM (inactive)	> 100 µM (inactive)	> 100 µM (inactive)	> 100 µM (inactive)	22.4 µM (inactive)	> 100 µM (inactive)	> 100 µM (inactive)	> 100 µM (inactive)	> 100 µM (inactive)	> 100 µM (inactive)		> 100 µM (inactive)
COc1ccc2c(c1)CCCc1cn[nH]c1-2	> 100 µM (inactive)	> 100 µM (inactive)	> 100 µM (inactive)	> 100 µM (inactive)	> 100 µM (inactive)	> 100 µM (inactive)	> 100 µM (inactive)	> 65.8 µM (inactive)	> 100 µM (inactive)	> 100 µM (inactive)	> 100 µM (inactive)	> 100 µM (inactive)		> 89.1 µM (inactive)	> 100 µM (inactive)		> 100 µM (inactive)	77.8 µM (inactive)		
N#Cc1c(NC(=S)Nc2ccc(Cl)cc2)sc2c1CCCC2		> 100 µM (inactive)	> 100 µM (inactive)	> 100 µM (inactive)	> 100 µM (inactive)	> 100 µM (inactive)	> 100 µM (inactive)	29.4 µM (inactive)	> 100 µM (inactive)		> 100 µM (inactive)	> 100 µM (inactive)	24.2 µM (inactive)	> 100 µM (inactive)	65.3 µM (inactive)	> 100 µM (inactive)	64.1 µM (inactive)	> 100 µM (inactive)	> 100 µM (inactive)	> 100 µM (inactive)
CC(=O)OC/C=C\Cn1nc(Br)c(=O)[nH]c1=O	16.3 µM (inactive)	9.75 µM (inactive)	15.5 µM (inactive)	6.75 µM (inactive)	11.5 µM (inactive)	12.9 µM (inactive)	15.1 µM (inactive)	9.33 µM (inactive)	14.3 µM (inactive)	11.2 µM (inactive)	14.6 µM (inactive)	19.9 µM (inactive)	25.9 µM (inactive)	10.6 µM (inactive)	17.3 µM (inactive)	14.6 µM (inactive)	15.7 µM (inactive)	10.7 µM (inactive)	13.9 µM (inactive)	15.7 µM (inactive)
O=C1C=C(N2CC2)C(=O)C=C1N1CC1	0.136 µM (active)	0.0889 µM (active)	0.265 µM (active)	0.0849 µM (active)		0.418 µM (active)	0.0904 µM (active)		0.0891 µM (active)	0.0931 µM (active)	0.101 µM (active)	0.0318 µM (active)	0.227 µM (active)	0.0634 µM (active)	0.757 µM (active)	1.23 µM (inactive)	0.307 µM (active)	< 0.0148 µM (active)	1.05 µM (active)	0.339 µM (active)
CCOC(=O)C1(C(=O)OCC)CSC1		> 100 µM (inactive)	> 100 µM (inactive)	> 100 µM (inactive)	> 100 µM (inactive)	> 100 µM (inactive)	> 100 µM (inactive)	> 100 µM (inactive)	> 100 µM (inactive)		> 100 µM (inactive)	42 µM (inactive)		> 100 µM (inactive)	> 100 µM (inactive)	> 100 µM (inactive)	0.192 µM (active)		> 100 µM (inactive)	> 100 µM (inactive)
OCC(CO)CC1COc2ccccc2O1 (stereo unspecified)	> 10 µM (inactive)	> 10 µM (inactive)		> 10 µM (inactive)	> 10 µM (inactive)	> 10 µM (inactive)	> 10 µM (inactive)	> 10 µM (inactive)	> 10 µM (inactive)	> 10 µM (inactive)	> 10 µM (inactive)	> 10 µM (inactive)	> 10 µM (inactive)	> 10 µM (inactive)	> 10 µM (inactive)	> 10 µM (inactive)	> 10 µM (inactive)	> 10 µM (inactive)	> 10 µM (inactive)	> 10 µM (inactive)
